Data on seven molecules can be found in patent US7632811B2, “Analogs of parathyroid hormone” (Societe de Conseils de Recherches et D'Applications …, priority 1995, dated 2009).

The target of the assay is T1, PTH receptor present on SaOS-2 (human osteosarcoma cells) (Homo sapiens, UniProt Q03431).
T1 construct: host or cells: SaOS-2 human osteosarcoma cells (intact, confluent monolayers)
T1 sequence (Q03431 27-593): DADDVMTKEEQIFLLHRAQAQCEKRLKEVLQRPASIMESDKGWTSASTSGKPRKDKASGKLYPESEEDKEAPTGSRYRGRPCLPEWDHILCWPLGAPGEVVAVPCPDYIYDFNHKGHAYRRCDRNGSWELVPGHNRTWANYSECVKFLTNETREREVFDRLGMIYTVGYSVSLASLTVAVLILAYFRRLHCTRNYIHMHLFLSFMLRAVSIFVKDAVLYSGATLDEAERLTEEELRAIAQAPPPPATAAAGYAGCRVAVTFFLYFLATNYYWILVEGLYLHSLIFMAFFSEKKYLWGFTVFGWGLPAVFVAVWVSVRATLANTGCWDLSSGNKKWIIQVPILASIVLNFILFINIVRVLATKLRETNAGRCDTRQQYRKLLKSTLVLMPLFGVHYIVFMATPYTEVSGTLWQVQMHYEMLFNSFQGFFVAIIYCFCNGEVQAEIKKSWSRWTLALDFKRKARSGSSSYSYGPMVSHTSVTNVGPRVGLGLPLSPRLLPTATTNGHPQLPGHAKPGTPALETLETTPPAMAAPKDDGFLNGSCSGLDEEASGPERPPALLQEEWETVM
As to the kind of experiment: Binding to PTH receptor on SaOS-2 cells (competition with mono-125I-[Nle8,18,Tyr34(3-125I)]bPTH(1-34)NH2). The note with it: 2 hrs at room temperature, read-out: Kd (half maximal inhibition of binding of mono-125I-[Nle8,18, Tyr34(3-125I)]bPTH(1-34)NH2). The method in brief: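 Confluent SaOS-2 cells in 5% FBS RPMI were incubated 2 h at room temperature with 10×10^4 cpm mono-125I-[Nle8,18,Tyr34(3-125I)]bPTH(1-34)NH2 plus competing peptide at 10^−11 to 10^−4 M. After washing, cell-bound radioactivity was counted; Kd taken as half-maximal inhibition of tracer binding.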

Like-named read-outs stand apart in the source and are kept apart here. Non-standard residues stand in square brackets, D forms with d. Residues, ends and D or L forms follow the SMILES beside them. Cha = N[C@@H](CC1CCCCC1)C(=O)O; Ac6c = NC1(C(=O)O)CCCCC1; Nle = CCCC[C@H](N)C(=O)O; Dap = NC[C@H](N)C(=O)O; Aib = CC(C)(N)C(=O)O

With `CC[C@H](C)[C@H](NC(=O)[C@H](CCC(=O)O)NC(=O)[C@H](CO)NC(=O)[C@@H](NC(=O)[C@@H](N)CO)C(C)C)C(=O)N[C@@H](CCC(N)=O)C(=O)N[C@@H](CC(C)C)C(=O)N[C@@H](CCSC)C(=O)N[C@@H](Cc1c[nH]cn1)C(=O)N[C@@H](CC(N)=O)C(=O)N[C@@H](CC(C)C)C(=O)NCC(=O)N[C@@H](CCCCN)C(=O)N[C@@H](Cc1c[nH]cn1)C(=O)N[C@@H](CC(C)C)C(=O)N[C@@H](CC(N)=O)C(=O)N[C@@H](CO)C(=O)N[C@@H](CCSC)C(=O)N[C@@H](CCC(=O)O)C(=O)N[C@@H](CCCNC(=N)N)C(=O)N[C@H](C(=O)N[C@@H](CCC(=O)O)C(=O)N[C@@H](Cc1c[nH]c2ccccc12)C(=O)N[C@@H](CC(C)C)C(=O)N[C@@H](CCCNC(=N)N)C(=O)N[C@@H](CCCCN)C(=O)N[C@@H](CCCCN)C(=O)N[C@@H](CC(C)C)C(=O)N[C@@H](CCC(N)=O)C(=O)N[C@@H](CC(=O)O)C(=O)N[C@@H](CC1CCCCC1)C(=O)N[C@@H](Cc1c[nH]cn1)C(=O)N[C@@H](CC(N)=O)C(=O)N[C@@H](Cc1ccccc1)C(N)=O)C(C)C` [[Cha^31]hPTH(1-34)NH2] (H-SVSEIQLMHNLGKHLNSMERVEWLRKKLQD[Cha]HNF-NH2), where the note is “Table I”, the Kd amounted to 0.03 µM.

For `CCCC[C@H](NC(=O)[C@H](CO)NC(=O)[C@H](CC(N)=O)NC(=O)[C@H](CC(C)C)NC(=O)[C@H](Cc1c[nH]cn1)NC(=O)[C@H](CCCCN)NC(=O)CNC(=O)[C@H](CC(C)C)NC(=O)[C@H](CC(N)=O)NC(=O)[C@H](Cc1c[nH]cn1)NC(=O)[C@H](CCCC)NC(=O)[C@H](CC(C)C)NC(=O)[C@H](CCC(N)=O)NC(=O)[C@@H](NC(=O)[C@H](CCC(=O)O)NC(=O)[C@H](CO)NC(=O)[C@@H](NC(=O)[C@@H](N)CN)C(C)C)[C@@H](C)CC)C(=O)N[C@@H](CCC(=O)O)C(=O)N[C@@H](CCCNC(=N)N)C(=O)N[C@H](C(=O)N[C@@H](CCC(=O)O)C(=O)N[C@@H](Cc1c[nH]c2ccccc12)C(=O)N[C@@H](CC(C)C)C(=O)N[C@@H](CCCNC(=N)N)C(=O)N[C@@H](CCCCN)C(=O)N[C@@H](CCCCN)C(=O)N[C@@H](CC(C)C)C(=O)N[C@@H](CCC(N)=O)C(=O)N[C@@H](CC(=O)O)C(=O)N[C@H](C(=O)N[C@@H](Cc1c[nH]cn1)C(=O)N[C@@H](CC(N)=O)C(=O)N[C@@H](Cc1ccc(O)cc1)C(N)=O)C(C)C)C(C)C` [[Dap,Nle^8,18, Tyr^34]hPTH(1-34)NH2] (H-[Dap]VSEIQL[Nle]HNLGKHLNS[Nle]ERVEWLRKKLQDVHNY-NH2), the Kd (Table I) was 0.15 µM.

`CC[C@H](C)[C@H](NC(=O)[C@H](CO)NC(=O)[C@H](CCCCN)NC(=O)CNC(=O)[C@H](CCCCN)NC(=O)[C@H](CC(=O)O)NC(=O)[C@H](Cc1c[nH]cn1)NC(=O)[C@H](CC(C)C)NC(=O)[C@H](CC(C)C)NC(=O)[C@H](CCC(N)=O)NC(=O)[C@H](Cc1c[nH]cn1)NC(=O)[C@H](CCC(=O)O)NC(=O)[C@H](CO)NC(=O)[C@@H](NC(=O)[C@H](C)N)C(C)C)C(=O)N[C@@H](CCC(N)=O)C(=O)N[C@@H](CC(=O)O)C(=O)N[C@@H](CC(C)C)C(=O)N[C@@H](CCCNC(=N)N)C(=O)N[C@@H](CCCNC(=N)N)C(=O)N[C@@H](CCCNC(=N)N)C(=O)N[C@@H](CCC(=O)O)C(=O)N[C@@H](CC(C)C)C(=O)N[C@@H](CC(C)C)C(=O)N[C@@H](CCC(=O)O)C(=O)N[C@@H](CCCCN)C(=O)N[C@@H](CC(C)C)C(=O)N[C@@H](CC(C)C)C(=O)N[C@@H](CCC(=O)O)C(=O)NC1(C(=O)N[C@@H](CC(C)C)C(=O)N[C@@H](Cc2c[nH]cn2)C(=O)N[C@H](C(=O)N[C@@H](C)C(N)=O)[C@@H](C)O)CCCCC1` [[Glu^22,25,29, Leu^23,28,31, Lys^26, Ahc^30]hPTHrP(1-34)NH2] (H-AVSEHQLLHDKGKSIQDLRRRELLEKLLE[Ac6c]LHTA-NH2; N-terminus assumed): the Kd (Table II) stood at 0.23 µM.

`CC[C@H](C)[C@H](NC(=O)[C@H](CO)NC(=O)[C@H](CCCCN)NC(=O)CNC(=O)[C@H](CCCCN)NC(=O)[C@H](CC(=O)O)NC(=O)[C@H](Cc1c[nH]cn1)NC(=O)[C@H](CC(C)C)NC(=O)[C@H](CC(C)C)NC(=O)[C@H](CCC(N)=O)NC(=O)[C@H](Cc1c[nH]cn1)NC(=O)[C@H](CCC(=O)O)NC(=O)[C@H](CO)NC(=O)[C@@H](NC(=O)[C@H](C)N)C(C)C)C(=O)N[C@@H](CCC(N)=O)C(=O)N[C@@H](CC(=O)O)C(=O)N[C@@H](CC(C)C)C(=O)N[C@@H](CCCNC(=N)N)C(=O)N[C@@H](CCCNC(=N)N)C(=O)N[C@@H](CCCNC(=N)N)C(=O)N[C@@H](CCC(=O)O)C(=O)NC1(C(=O)N[C@@H](CC(C)C)C(=O)N[C@@H](CCC(=O)O)C(=O)N[C@@H](CCCCN)C(=O)N[C@@H](CC(C)C)C(=O)N[C@@H](CC(C)C)C(=O)NC(C)(C)C(=O)N[C@@H](CCCCN)C(=O)N[C@@H](CC(C)C)C(=O)N[C@@H](Cc2c[nH]cn2)C(=O)N[C@H](C(=O)N[C@@H](C)C(N)=O)[C@@H](C)O)CCCCC1` [[Glu^22,25, Ahc^23, Lys^26,30, Leu^28,31, Aib^29]hPTHrP(1-34)NH2] (H-AVSEHQLLHDKGKSIQDLRRRE[Ac6c]LEKLL[Aib]KLHTA-NH2; N-terminus assumed): for the setting “Table II”, the Kd is 0.07 µM.

Take `CC[C@H](C)[C@H](NC(=O)[C@H](CO)NC(=O)[C@H](CCCCN)NC(=O)CNC(=O)[C@H](CCCCN)NC(=O)[C@H](CC(=O)O)NC(=O)[C@H](Cc1c[nH]cn1)NC(=O)[C@H](CC(C)C)NC(=O)[C@H](CC(C)C)NC(=O)[C@H](CCC(N)=O)NC(=O)[C@H](Cc1c[nH]cn1)NC(=O)[C@H](CCC(=O)O)NC(=O)[C@H](CO)NC(=O)[C@@H](NC(=O)[C@H](C)N)C(C)C)C(=O)N[C@@H](CCC(N)=O)C(=O)N[C@@H](CC(=O)O)C(=O)N[C@@H](CC(C)C)C(=O)N[C@@H](CCCNC(=N)N)C(=O)N[C@@H](CCCNC(=N)N)C(=O)N[C@@H](CCCNC(=N)N)C(=O)N[C@@H](CCC(=O)O)C(=O)N[C@@H](CC(C)C)C(=O)NC1(C(=O)N[C@@H](CCC(=O)O)C(=O)N[C@@H](CCCCN)C(=O)N[C@@H](CC(C)C)C(=O)N[C@@H](CC(C)C)C(=O)NC(C)(C)C(=O)N[C@@H](CCCCN)C(=O)N[C@@H](CC(C)C)C(=O)N[C@@H](Cc2c[nH]cn2)C(=O)N[C@H](C(=O)N[C@@H](C)C(N)=O)[C@@H](C)O)CCCCC1` [[Glu^22,25, Leu^23,28,31, Ahc^24, Lys^26,30, Aib^29]hPTHrP(1-34)NH2] (H-AVSEHQLLHDKGKSIQDLRRREL[Ac6c]EKLL[Aib]KLHTA-NH2; N-terminus assumed): the dissociation constant (Kd) (Table II) stood at 0.006 µM.

As to `CC[C@H](C)[C@H](NC(=O)[C@H](CO)NC(=O)[C@H](CCCCN)NC(=O)CNC(=O)[C@H](CCCCN)NC(=O)[C@H](CC(=O)O)NC(=O)[C@H](Cc1c[nH]cn1)NC(=O)[C@H](CC(C)C)NC(=O)[C@H](CC(C)C)NC(=O)[C@H](CCC(N)=O)NC(=O)[C@H](Cc1c[nH]cn1)NC(=O)[C@H](CCC(=O)O)NC(=O)[C@H](CO)NC(=O)[C@@H](NC(=O)[C@H](C)N)C(C)C)C(=O)N[C@@H](CCC(N)=O)C(=O)N[C@@H](CC(=O)O)C(=O)N[C@@H](CC(C)C)C(=O)N[C@@H](CCCNC(=N)N)C(=O)N[C@@H](CCCNC(=N)N)C(=O)N[C@@H](CCCNC(=N)N)C(=O)N[C@@H](CCC(=O)O)C(=O)N[C@@H](CC(C)C)C(=O)N[C@@H](CC(C)C)C(=O)N[C@@H](CCC(=O)O)C(=O)N[C@@H](CCCCN)C(=O)NC1(C(=O)N[C@@H](CC(C)C)C(=O)NC(C)(C)C(=O)N[C@@H](CCCCN)C(=O)N[C@@H](CC(C)C)C(=O)N[C@@H](Cc2c[nH]cn2)C(=O)N[C@H](C(=O)N[C@@H](C)C(N)=O)[C@@H](C)O)CCCCC1` [[Glu^22,25, Leu^23,28,31, Lys^26,30, Ahc^27, Aib^29]hPTHrP(1-34)NH2] (H-AVSEHQLLHDKGKSIQDLRRRELLEK[Ac6c]L[Aib]KLHTA-NH2; N-terminus assumed), the dissociation constant Kd (Table II) was determined as 0.23 µM.

Turning to `CC[C@H](C)[C@H](NC(=O)[C@H](CO)NC(=O)[C@H](CCCCN)NC(=O)CNC(=O)[C@H](CCCCN)NC(=O)[C@H](CC(=O)O)NC(=O)[C@H](Cc1c[nH]cn1)NC(=O)[C@H](CC(C)C)NC(=O)[C@H](CC(C)C)NC(=O)[C@H](CCC(N)=O)NC(=O)[C@H](Cc1c[nH]cn1)NC(=O)[C@H](CCC(=O)O)NC(=O)[C@H](CO)NC(=O)[C@@H](NC(=O)[C@H](C)N)C(C)C)C(=O)N[C@@H](CCC(N)=O)C(=O)N[C@@H](CC(=O)O)C(=O)N[C@@H](CC(C)C)C(=O)N[C@@H](CCCNC(=N)N)C(=O)N[C@@H](CCCNC(=N)N)C(=O)N[C@@H](CCCNC(=N)N)C(=O)N[C@@H](CCC(=O)O)C(=O)N[C@@H](CC(C)C)C(=O)N[C@@H](CC(C)C)C(=O)N[C@@H](CCC(=O)O)C(=O)N[C@@H](CCCCN)C(=O)N[C@@H](CC(C)C)C(=O)N[C@@H](CC(C)C)C(=O)NC(C)(C)C(=O)N[C@@H](CCCCN)C(=O)NC1(C(=O)N[C@@H](Cc2c[nH]cn2)C(=O)N[C@H](C(=O)N[C@@H](C)C(N)=O)[C@@H](C)O)CCCCC1` [[Glu^22,25, Leu^23,28, Lys^26,30, Aib^29, Ahc^31]hPTHrP(1-34)NH2] (H-AVSEHQLLHDKGKSIQDLRRRELLEKLL[Aib]K[Ac6c]HTA-NH2), the Kd (Table II) stood at 0.2 µM.

For orientation: Kd means a measure of binding affinity in units of concentration.
